Results published in patent US20170107203A1, “HETEROCYCLIC INHIBITORS OF THE SODIUM CHANNEL” (EPIRUS BIOPHARMACEUTICALS, INC., priority 2014, published 2017).

Target: T1, human Nav1.7 (Homo sapiens, UniProt Q15858)
T1 construct: expressed in transfected cells
Assay: Assessment of Nav1.7 activity on PatchXpress (voltage dependence / slow inactivation parameters)
Type: cell-based
Conditions: compound at 10 μM, relative to 0.2% DMSO vehicle control; for hNav1.7: Reduction in current at 20 mV (normalized data) Delta Ratio: before/after 30 sec conditioning pulse at 20 mV; for hNav1.7: Shift in voltage dependence of inactivation (mV) Delta Vhalf: PatchXpress
Method: The generation of a HEK 293F cell line stably expressing human Nav1.7/Navp1 was achieved by co-transfecting human SCN9A and human SCN1B cDNAs, subcloned into plasmid vectors, utilizing standard transfection techniques. Clones were selected using appropriate selection agents (0.3 mg/mL Zeocin and 0.8 mg/mL Geneticin) and maintained in Dulbecco's Modified Eagle medium, 10% fetal bovine serum, 1% non-essential amino acids to ˜80% confluence at 37° C. in a humidified incubator with 95% atmosphere and 5% CO2.
On the day of each experiment, cells that were grown to 80% confluence in a T75 flask were harvested for use on PatchXpress (Molecular Devices, CA, USA). Following a recovery period at 37° C. in a humidified incubator with 95% atmosphere and 5% CO2 in Dulbecco's Modified Eagle Medium, the media was replaced with an external recording solution containing (in mM): 90 TEACI, 50 NaCl, 1.8 CaCl2, 1 MgCl2, 10 HEPES, 10 glucose, adjusted to pH 7.4 with TEAOH and 300 mOsm with sucrose. The internal recording solution contained (in mM): 129 CsF, 2 MgCl2, 11 EGTA, 10 HEPES, 6 NaCl, 3 Na2ATP adjusted to pH 7.2 with CsOH and 280 mOsm with sucrose. The automated liquid handling facility of PatchXpress dispensed cells and added compound. Modulation of Nav1.7 channels by compounds was assessed by promoting the channels into the inactivated state using a conditioning voltage pulse of variable amplitude, followed by a brief hyperpolarizing pulse with a subsequent depolarized voltage step to measure the current amplitude in the presence and absence of compound. Compounds were assayed at 10 μM. Based upon this Patch express protocol, four electrophysiological parameters were measured relative to a 0.2% DMSO vehicle control (Table 2).

T1 sequence (Q15858 whole entry): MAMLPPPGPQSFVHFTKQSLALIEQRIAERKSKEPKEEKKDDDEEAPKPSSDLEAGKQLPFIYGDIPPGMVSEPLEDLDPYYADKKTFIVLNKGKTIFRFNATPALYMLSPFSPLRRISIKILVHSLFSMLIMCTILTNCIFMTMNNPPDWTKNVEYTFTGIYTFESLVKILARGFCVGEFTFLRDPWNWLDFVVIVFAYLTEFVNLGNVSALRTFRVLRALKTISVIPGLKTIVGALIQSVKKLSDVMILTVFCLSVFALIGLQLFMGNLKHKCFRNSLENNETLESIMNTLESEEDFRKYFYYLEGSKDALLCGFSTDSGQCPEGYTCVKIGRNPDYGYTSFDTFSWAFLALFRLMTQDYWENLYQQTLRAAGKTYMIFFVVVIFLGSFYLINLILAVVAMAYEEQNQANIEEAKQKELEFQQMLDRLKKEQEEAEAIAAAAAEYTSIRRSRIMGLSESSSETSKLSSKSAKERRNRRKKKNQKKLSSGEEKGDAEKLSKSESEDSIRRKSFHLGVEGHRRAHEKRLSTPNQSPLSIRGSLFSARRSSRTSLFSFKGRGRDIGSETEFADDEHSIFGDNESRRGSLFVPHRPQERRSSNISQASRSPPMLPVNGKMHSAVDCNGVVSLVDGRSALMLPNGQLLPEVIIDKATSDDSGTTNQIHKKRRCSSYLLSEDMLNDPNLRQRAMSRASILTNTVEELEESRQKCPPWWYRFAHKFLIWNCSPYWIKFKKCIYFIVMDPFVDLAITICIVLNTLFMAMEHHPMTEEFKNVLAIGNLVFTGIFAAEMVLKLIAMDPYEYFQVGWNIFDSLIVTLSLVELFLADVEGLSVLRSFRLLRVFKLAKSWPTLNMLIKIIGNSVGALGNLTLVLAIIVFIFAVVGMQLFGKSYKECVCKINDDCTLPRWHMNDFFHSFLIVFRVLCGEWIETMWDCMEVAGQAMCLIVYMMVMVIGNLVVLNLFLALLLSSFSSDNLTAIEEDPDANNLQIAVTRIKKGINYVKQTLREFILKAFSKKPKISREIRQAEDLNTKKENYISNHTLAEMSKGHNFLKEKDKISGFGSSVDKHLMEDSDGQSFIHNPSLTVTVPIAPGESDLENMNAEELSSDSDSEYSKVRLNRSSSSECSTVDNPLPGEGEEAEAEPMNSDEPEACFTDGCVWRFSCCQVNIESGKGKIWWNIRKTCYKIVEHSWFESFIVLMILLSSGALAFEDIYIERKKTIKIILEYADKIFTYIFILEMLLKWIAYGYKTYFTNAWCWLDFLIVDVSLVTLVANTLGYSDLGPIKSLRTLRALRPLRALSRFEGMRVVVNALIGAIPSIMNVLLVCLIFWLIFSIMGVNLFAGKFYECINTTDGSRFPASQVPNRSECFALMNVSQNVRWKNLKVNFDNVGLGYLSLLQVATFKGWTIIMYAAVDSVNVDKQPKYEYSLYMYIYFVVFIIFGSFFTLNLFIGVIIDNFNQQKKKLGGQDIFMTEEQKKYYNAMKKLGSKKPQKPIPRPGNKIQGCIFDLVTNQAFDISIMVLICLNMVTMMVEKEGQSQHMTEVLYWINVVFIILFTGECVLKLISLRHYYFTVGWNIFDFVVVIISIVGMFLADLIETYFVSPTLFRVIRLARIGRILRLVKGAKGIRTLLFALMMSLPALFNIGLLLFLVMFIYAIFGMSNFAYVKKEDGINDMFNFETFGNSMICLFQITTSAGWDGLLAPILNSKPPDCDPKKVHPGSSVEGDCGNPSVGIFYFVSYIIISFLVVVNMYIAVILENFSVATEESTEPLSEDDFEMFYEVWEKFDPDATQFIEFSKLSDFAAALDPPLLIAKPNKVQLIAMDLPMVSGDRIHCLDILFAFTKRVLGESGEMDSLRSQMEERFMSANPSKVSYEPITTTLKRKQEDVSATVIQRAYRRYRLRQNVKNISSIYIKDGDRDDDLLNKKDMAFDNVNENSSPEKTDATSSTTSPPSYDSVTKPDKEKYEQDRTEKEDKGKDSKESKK
T1 sequence (Q07699 19-218 partner): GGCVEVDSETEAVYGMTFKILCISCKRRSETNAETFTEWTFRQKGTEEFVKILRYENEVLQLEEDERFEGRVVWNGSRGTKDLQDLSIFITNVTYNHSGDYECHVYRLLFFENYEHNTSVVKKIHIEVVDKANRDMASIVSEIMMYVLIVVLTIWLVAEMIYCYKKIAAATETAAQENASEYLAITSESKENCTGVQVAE

Compound | hNav1.7: Reduction in current at 20 mV (normalized data) Delta Ratio | hNav1.7: Voltage dependence of activation (mV) VDEP | hNav1.7: Voltage dependence of fast inactivation (mV) VDEP | hNav1.7: Shift in voltage dependence of inactivation (mV) Delta Vhalf
N[C@H](c1ccccc1)c1nc2cc(C(F)(F)F)cc(C(F)(F)F)c2[nH]1 [Compound 57, (R)-(4,6-bis(trifluoromethyl)-1H-benzo[d]imidazol-2-yl)(phenyl)methanamine] | −0.21 | −4.7 mV | −4.8 mV | −10.4 mV
N[C@H](Cc1cccc(C(F)(F)F)c1)C(=O)NCc1nc2ccc(Br)cc2[nH]1 [Compound 74, (R)-2-amino-N-((6-bromo-1H-benzo[d]imidazol-2-yl)methyl)-3-(3-(trifluoromethyl)phenyl)propanamide] | −0.07 | −3.7 mV | −8.8 mV | −7.4 mV
CC(=O)N1CCC(NC(=O)Nc2ccc(OC(F)(F)F)cc2)CC1 [Compound 50, 1-(1-acetylpiperidin-4-yl)-3-(4-(trifluoromethoxy)phenyl)urea] | 0.02 | −8.30 mV | −2.10 mV | −0.30 mV
O=C(CCc1nc2cc(F)cc(F)c2[nH]1)N1CCNCC1 [Compound 66, 3-(4,6-difluoro-1H-benzo[d]imidazol-2-yl)-1-(piperazin-1-yl)propan-1-one] | −0.14 | −14.5 mV | −6.9 mV | −12.0 mV
O=C(NCCOc1cc(C(F)(F)F)cc(C(F)(F)F)c1)[C@H]1CCCN1 [Compound 11, (R)-N-(2-(3,5-bis(trifluoromethyl)phenoxy)ethyl) pyrrolidine-2-carboxamide] | −0.20 | −5.00 mV | −3.90 mV | −19.70 mV
NC1(c2nc3cc(C(F)(F)F)cc(C(F)(F)F)c3[nH]2)Cc2ccccc2C1 [Compound 52, 2-(4,6-bis(trifluoromethyl)-1H-benzo[d]imidazol-2-yl)-2,3-dihydro-1H-inden-2-amine] | −0.28 | −7.2 mV | −8.2 mV | −14.9 mV
Cc1cccc(C)c1OCC(C)NC(=O)CCN1CCNCC1=O (centres unmarked) [Compound 36, N-(1-(2,6-dimethylphenoxy)propan-2-yl)-3-(2-oxopiperazin-1-yl)propanamide] | −0.04 | −12.90 mV | −5.00 mV | −2.90 mV
O[C@@H]1CN[C@H](c2nc3cc(C(F)(F)F)cc(C(F)(F)F)c3[nH]2)C1 [Compound 85, (3S,5S)-5-(5,7-bis(trifluoromethyl)-1H-benzo[d]imidazol-2-yl)pyrrolidin-3-ol] | 0.03 | −3.4 mV | −3.2 mV | 0.3 mV
O=C(NCCOc1cc(C(F)(F)F)cc(C(F)(F)F)c1)C1CCCN1 (centres unmarked) [Compound 14, N-(2-(3,5-bis(trifluoromethyl)phenoxy)ethyl) pyrrolidine-2-carboxamide] | −0.17 | −4.00 mV | −1.10 mV | −25.30 mV
CC(C)(c1nc2cc(F)cc(F)c2[nH]1)N1CCNCC1=O [Compound 64, 1-(2-(4,6-difluoro-1H-benzo[d]imidazol-2-yl)propan-2-yl)piperazin-2-one] | −0.16 | −7.1 mV | −5.9 mV | −5.4 mV
N[C@H]1CCCC[C@H]1C(=O)NCCOc1cc(C(F)(F)F)cc(C(F)(F)F)c1 [Compound 8, (1R,2S)-2-amino-N-(2-(3,5-bis(trifluoromethyl)phenoxy)ethyl) cyclohexane-1-carboxamide] | −0.23 | −7.80 mV | −6.80 mV | −16.40 mV
O=C1CNCCN1CCCc1nc2cc(F)cc(F)c2[nH]1 [Compound 68, 1-(3-(4,6-difluoro-1H-benzo[d]imidazol-2-yl)propyl)piperazin-2-one] | −0.1 | −11.6 mV | −4.9 mV | −11.4 mV
N[C@@H](Cc1ccccc1)Cc1nc2cc(C(F)(F)F)cc(C(F)(F)F)c2[nH]1 [Compound 53, (S)-1-(4,6-bis(trifluoromethyl)-1H-benzo[d]imidazol-2-yl)-3-phenylpropan-2-amine] | −0.28 | −8.2 mV | −3.9 mV | −7.2 mV
Cc1cccc(C)c1OCC(C)NC(=O)CC(=O)NC1CCNCC1 (centres unmarked) [Compound 34, N1-(1-(2,6-dimethylphenoxy)propan-2-yl)-N3-(piperidin-4-yl)malonamide] | −0.03 | −6.30 mV | −5.10 mV | −2.30 mV
CC(C)(CN1CCNCC1=O)c1nc2cc(C(F)(F)F)cc(C(F)(F)F)c2[nH]1 [Compound 65, 1-(2-(4,6-bis(trifluoromethyl)-1H-benzo[d]imidazol-2-yl)-2-methylpropyl)piperazin-2-one] | −0.16 | −8.1 mV | −6.2 mV | −3.5 mV
Cc1cccc(C)c1OCC(C)NC(=O)CN (centres unmarked) [Compound 17, 2-amino-N-(1-(2,6-dimethylphenoxy)propan-2-yl)acetamide] | −0.10 | −5.80 mV | −5.90 mV | −12.40 mV
COC[C@@H](NC(C)=O)C(=O)NCc1cc(C(F)(F)F)cc(C(F)(F)F)c1 [Compound 79, (R)-2-acetamido-N-(3,5-bis(trifluoromethyl)benzyl)-3-methoxypropanamide] | −0.04 | −15.2 mV | −7.9 mV | −5.8 mV
